The subject of assay [1] is ds26 (DNA, duplex) CAATCGGATCGAATTCGATCCGATTG
Nature of the assay: CD titration. The note with it: K+ (100 mM potassium phosphate); 100 mM KPhos pH 7.4, 20 °C; 5 µM DNA; weak Ka seen by UV-visible.

Assay [2] shares this test system. In words: UV-visible titration. To be noted: K+ (100 mM potassium phosphate), 100 mM KPhos pH 7.4, ambient temperature, 10 µM ligand, apparent.

For the molecule `C[n+]1ccc(-c2ccc3c(c2)CCc2cc(-c4cc[n+](C)cc4)ccc2/N=N/3)cc1`, the binding result in assay [1] is on record as “no”. Moreover, the Ka in assay [2] (continuous 405 nm irradiation) is on record as 2.44 × 10^3 M^–1.

Turning to `C[n+]1ccc(-c2ccc3c(c2)CCc2cc(-c4cc[n+](C)cc4)ccc2/N=N\3)cc1`, the Ka in assay [2] is given as 2.53 × 10^3 M^–1.
